SMILES strings stand for the structures. Structures can show the parent of a compound that is named as a salt.

This is an account of results in patent US20240423998A1, “METHODS OF TREATING AGITATION AND OTHER DEMENTIA-ASSOCIATED BEHAVIORAL SYMPTOMS” (WOOLSEY PHARMACEUTICALS, INC., priority 2021, published 2024).

Data set [1] concerns agitation in patients with Alzheimer's Dementia (AD). The data set can be described thus: Clinical trial of oral fasudil in reducing agitation in patients with Alzheimer's Dementia (CMAI score). The class given is in vivo, human. Here is the method:
All the patients were treated for 6 weeks with 90 mg per day (30 mg TID) and a subset of patients was treated an additional 6 weeks with 180 mg per day (60 mg TID). […] A variety of assessments were conducted at baseline and at the end of treatment, including the NPI-Q and the CMAI.
Two baseline thresholds were set, and two analyses were done based on the two groupings that resulted. One threshold was based on the agitation/aggression domain of the NPI-Q and the other based on the CMAI score.
The first selection was based on NPI-Q score of ≥4.
The second selection required a baseline CMAI score of ≥20 and this yielded a 13-patient subgroup, having a mean baseline CMAI score of 34.4. […] All the patients selected using the NPI-Q agitation/aggression domain score of ≥4 were also included in this subgroup.
The analysis looked at the CMAI score prior to treatment and compared it to the last day of treatment (6 weeks for the 10 patients on the low dose and 12 weeks for the 3 patients on the high dose).

The test system of the next data set is mice. Conditions: six-month old mice, 10 mg/kg oral gavage once a day for 30 days; reduction indicates anxiety; cited from earlier work.
The conditions of data set [2]: in vivo, metabolite; cited from earlier work.

For `O=S(=O)(c1cccc2cnccc12)N1CCCNCC1` [fasudil], the “difference in mean CMAI score, baseline vs end of treatment” value in data set [1] (six patients with baseline NPI-Q score >=4, 90 mg per day (30 mg TID) for 6 weeks) is reported as 22.3. Further, the “mean CMAI score at the end of treatment” value in data set [1] (six patients with baseline NPI-Q score >=4, 90 mg per day (30 mg TID) for 6 weeks, mean baseline CMAI 45.3) worked out at 23.0; in data set [1] (thirteen patients with baseline CMAI score >=20, 6 weeks at 90 mg per day (10 patients) or additional 6 weeks at 180 mg per day (3 patients), mean baseline CMAI 34.4), 21.8. For the same molecule, the “difference in mean CMAI score, prior to treatment vs end of treatment” value in data set [1] (thirteen patients with baseline CMAI score >=20, 6 weeks at 90 mg per day (10 patients) or additional 6 weeks at 180 mg per day (3 patients)) was determined as 12.6. Moreover, the “amount of time spent in the open arms of the maze” value with mice is “significantly reduced”.

Consider `O=S(=O)(c1cccc2c(O)nccc12)N1CCCNCC1` [M3], for which, in data set [2], the half-life result is reported as “about 8 hours”.

For `O=S(=O)(c1cccc2cnccc12)N1CCCNCC1` [fasudil HCl hemihydrate, Hexahydro-1-(5-isoquinolinesulfonyl)-1H-1,4-diazepine monohydrochloride hemihydrate], the “tolerability of treatment regimens” value in data set [1] (nineteen AD patients, 90 mg per day (30 mg TID) 6 weeks and 180 mg per day (60 mg TID) additional 6 weeks) was “well tolerated”.
